Source: article PMC7736581, “Activation of the IRE1 RNase through remodeling of the kinase front pocket by ATP-competitive ligands” (Nature Communications, 2020)

Tests used:
Test in all cases: biochemical
Parameters in all cases: Invitrogen kinase panel: Z'Lyte activity (ATP at Km) or LanthaScreen competitive ATP-site binding, percent inhibition
[1] = target: T1, Aurora_A (Homo sapiens, UniProt O14965)
T1 construct: gene AURKA
T1 sequence (O14965 1-403): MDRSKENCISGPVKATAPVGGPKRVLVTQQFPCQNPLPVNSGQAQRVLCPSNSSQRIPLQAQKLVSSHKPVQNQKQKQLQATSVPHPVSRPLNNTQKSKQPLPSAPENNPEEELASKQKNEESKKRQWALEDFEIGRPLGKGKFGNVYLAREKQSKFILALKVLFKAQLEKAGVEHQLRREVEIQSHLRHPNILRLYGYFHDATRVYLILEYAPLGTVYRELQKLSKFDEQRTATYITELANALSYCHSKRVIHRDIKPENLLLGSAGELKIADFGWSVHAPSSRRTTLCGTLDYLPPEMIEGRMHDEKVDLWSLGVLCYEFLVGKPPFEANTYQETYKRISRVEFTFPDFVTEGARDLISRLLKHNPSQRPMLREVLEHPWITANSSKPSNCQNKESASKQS

[2] = target: T2, Brk (Homo sapiens, UniProt Q13882)
T2 construct: gene PTK6

[3] = target: KDR (Homo sapiens, UniProt P35968)
[4] = target: T3, NEK1 (Homo sapiens, UniProt Q96PY6)
T3 sequence (Q96PY6 1-1258): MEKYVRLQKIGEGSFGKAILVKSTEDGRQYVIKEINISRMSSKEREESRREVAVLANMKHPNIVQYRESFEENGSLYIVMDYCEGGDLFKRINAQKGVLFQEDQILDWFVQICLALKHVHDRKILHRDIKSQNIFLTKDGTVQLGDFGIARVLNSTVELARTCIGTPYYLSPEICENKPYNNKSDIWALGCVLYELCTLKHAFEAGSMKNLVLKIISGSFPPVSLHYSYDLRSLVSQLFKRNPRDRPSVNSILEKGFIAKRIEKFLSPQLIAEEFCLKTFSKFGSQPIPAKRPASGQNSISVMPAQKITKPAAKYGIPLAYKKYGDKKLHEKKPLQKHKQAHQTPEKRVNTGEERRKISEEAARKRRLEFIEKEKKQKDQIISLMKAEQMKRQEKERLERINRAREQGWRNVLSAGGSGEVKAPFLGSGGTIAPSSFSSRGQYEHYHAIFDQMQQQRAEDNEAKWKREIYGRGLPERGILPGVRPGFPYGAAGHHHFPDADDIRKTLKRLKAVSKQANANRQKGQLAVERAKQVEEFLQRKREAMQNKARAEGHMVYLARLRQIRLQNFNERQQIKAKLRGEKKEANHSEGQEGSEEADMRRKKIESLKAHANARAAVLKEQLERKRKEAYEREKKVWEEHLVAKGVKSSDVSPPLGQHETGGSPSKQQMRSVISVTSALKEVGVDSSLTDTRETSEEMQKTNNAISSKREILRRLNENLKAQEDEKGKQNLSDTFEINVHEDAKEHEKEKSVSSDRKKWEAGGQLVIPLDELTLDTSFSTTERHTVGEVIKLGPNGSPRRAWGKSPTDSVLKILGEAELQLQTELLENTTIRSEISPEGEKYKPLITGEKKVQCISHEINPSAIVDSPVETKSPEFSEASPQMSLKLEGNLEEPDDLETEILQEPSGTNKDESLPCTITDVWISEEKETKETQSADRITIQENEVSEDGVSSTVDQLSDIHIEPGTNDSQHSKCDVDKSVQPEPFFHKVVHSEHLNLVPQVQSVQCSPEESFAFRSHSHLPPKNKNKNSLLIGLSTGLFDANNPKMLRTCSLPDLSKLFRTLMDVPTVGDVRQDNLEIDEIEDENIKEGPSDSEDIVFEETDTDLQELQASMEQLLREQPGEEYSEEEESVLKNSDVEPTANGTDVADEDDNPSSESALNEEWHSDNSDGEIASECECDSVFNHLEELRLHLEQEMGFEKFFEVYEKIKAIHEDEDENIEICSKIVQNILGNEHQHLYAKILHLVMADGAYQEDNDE

[5] = target: T4, PKC_zeta (Homo sapiens, UniProt Q05513)
T4 construct: gene PRKCZ
T4 sequence (Q05513 1-592): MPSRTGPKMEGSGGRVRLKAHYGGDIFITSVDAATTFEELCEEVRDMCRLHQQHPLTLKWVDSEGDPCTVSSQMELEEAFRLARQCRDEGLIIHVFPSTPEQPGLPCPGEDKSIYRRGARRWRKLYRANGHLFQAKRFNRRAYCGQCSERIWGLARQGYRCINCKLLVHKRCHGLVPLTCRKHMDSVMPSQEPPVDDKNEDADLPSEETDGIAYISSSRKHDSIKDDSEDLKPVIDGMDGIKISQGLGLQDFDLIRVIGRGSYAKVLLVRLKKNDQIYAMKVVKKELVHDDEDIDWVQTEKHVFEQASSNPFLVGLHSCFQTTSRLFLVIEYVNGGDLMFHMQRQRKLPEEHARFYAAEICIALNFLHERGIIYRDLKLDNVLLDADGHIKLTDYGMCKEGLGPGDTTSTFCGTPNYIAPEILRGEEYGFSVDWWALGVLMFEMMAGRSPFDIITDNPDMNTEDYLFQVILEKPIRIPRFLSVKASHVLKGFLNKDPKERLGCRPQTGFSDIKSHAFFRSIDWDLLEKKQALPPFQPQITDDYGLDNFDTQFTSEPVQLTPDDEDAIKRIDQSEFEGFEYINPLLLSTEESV

[6] = target: T5, RSK2 (Homo sapiens, UniProt P51812)
T5 construct: gene RPS6KA3

[7] = target: SLK (Homo sapiens, UniProt Q9H2G2)
[8] = target: T6, Srm (Homo sapiens, UniProt Q9H3Y6)
T6 construct: gene SRMS
T6 sequence (Q9H3Y6 whole entry): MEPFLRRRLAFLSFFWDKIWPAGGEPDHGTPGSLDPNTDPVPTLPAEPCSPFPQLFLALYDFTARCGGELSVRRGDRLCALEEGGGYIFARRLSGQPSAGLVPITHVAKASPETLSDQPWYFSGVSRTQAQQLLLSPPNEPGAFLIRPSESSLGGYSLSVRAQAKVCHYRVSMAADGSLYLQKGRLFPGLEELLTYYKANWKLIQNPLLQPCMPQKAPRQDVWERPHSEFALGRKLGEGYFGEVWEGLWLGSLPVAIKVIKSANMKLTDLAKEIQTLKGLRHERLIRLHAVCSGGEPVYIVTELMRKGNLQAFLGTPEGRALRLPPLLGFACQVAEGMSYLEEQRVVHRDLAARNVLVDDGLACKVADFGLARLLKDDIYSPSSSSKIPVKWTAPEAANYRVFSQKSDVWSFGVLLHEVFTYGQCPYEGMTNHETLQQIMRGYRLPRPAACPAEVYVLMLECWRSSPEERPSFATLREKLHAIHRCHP

SLK, sequence (Q9H2G2 whole entry): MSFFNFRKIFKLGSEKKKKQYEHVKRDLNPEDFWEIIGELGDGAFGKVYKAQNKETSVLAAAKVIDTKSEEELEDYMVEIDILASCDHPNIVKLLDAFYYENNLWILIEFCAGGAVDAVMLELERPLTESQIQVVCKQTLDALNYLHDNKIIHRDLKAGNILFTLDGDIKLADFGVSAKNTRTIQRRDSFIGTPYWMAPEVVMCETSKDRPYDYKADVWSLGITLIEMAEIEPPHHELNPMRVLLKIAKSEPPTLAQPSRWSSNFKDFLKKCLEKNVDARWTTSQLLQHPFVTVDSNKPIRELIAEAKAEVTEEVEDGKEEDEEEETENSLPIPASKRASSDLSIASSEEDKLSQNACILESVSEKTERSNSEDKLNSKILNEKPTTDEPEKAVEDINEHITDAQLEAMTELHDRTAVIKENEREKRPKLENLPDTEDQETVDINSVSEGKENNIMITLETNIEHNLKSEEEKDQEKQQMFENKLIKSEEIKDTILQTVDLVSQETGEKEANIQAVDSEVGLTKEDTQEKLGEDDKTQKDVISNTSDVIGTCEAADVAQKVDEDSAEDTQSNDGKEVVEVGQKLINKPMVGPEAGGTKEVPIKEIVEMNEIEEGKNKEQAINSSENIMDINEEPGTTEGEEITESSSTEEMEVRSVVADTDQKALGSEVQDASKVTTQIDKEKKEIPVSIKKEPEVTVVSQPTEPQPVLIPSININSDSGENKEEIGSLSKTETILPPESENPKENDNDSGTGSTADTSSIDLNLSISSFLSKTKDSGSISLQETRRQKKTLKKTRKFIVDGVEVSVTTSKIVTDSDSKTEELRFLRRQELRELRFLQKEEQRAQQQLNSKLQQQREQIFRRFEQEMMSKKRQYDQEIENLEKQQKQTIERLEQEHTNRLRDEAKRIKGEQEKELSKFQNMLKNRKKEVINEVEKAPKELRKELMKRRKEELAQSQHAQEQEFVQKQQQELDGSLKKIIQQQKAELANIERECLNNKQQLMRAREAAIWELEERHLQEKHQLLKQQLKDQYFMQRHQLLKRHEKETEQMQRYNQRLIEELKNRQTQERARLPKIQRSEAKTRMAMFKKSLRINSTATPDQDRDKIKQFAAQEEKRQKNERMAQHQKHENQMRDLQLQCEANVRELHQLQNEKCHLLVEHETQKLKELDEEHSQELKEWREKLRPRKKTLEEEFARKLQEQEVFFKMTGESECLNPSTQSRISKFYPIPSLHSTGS
T2 sequence (Q13882 whole entry): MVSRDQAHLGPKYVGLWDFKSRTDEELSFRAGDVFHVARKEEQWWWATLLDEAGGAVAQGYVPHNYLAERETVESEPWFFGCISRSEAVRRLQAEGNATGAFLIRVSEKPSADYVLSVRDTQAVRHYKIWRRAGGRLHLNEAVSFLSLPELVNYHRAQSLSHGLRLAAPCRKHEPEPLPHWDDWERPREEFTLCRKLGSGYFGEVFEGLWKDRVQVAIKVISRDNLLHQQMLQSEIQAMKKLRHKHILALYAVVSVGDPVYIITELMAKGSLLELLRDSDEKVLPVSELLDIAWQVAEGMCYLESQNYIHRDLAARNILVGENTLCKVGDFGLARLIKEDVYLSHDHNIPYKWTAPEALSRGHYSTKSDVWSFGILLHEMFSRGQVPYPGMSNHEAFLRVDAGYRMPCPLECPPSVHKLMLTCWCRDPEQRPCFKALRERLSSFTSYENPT
T5 sequence (P51812 whole entry): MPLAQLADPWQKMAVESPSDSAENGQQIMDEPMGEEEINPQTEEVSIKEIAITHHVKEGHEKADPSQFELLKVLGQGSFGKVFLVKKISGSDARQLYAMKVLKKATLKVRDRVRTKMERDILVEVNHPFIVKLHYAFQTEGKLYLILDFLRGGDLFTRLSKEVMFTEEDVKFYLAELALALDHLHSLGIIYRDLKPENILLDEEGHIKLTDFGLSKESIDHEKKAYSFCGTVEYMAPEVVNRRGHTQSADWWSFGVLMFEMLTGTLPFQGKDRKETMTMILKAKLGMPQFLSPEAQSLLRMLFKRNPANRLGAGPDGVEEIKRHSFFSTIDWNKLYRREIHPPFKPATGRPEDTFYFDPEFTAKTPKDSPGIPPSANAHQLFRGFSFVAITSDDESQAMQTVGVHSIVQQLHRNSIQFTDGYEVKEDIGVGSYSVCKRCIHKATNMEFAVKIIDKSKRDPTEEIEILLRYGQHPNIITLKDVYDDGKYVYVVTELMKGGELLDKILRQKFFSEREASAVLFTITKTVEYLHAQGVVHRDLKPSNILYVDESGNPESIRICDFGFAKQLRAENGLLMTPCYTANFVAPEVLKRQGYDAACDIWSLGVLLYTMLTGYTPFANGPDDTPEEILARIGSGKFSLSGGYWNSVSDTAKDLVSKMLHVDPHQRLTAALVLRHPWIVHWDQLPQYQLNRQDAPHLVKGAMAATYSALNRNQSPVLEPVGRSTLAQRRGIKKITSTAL
KDR, sequence (P35968 whole entry): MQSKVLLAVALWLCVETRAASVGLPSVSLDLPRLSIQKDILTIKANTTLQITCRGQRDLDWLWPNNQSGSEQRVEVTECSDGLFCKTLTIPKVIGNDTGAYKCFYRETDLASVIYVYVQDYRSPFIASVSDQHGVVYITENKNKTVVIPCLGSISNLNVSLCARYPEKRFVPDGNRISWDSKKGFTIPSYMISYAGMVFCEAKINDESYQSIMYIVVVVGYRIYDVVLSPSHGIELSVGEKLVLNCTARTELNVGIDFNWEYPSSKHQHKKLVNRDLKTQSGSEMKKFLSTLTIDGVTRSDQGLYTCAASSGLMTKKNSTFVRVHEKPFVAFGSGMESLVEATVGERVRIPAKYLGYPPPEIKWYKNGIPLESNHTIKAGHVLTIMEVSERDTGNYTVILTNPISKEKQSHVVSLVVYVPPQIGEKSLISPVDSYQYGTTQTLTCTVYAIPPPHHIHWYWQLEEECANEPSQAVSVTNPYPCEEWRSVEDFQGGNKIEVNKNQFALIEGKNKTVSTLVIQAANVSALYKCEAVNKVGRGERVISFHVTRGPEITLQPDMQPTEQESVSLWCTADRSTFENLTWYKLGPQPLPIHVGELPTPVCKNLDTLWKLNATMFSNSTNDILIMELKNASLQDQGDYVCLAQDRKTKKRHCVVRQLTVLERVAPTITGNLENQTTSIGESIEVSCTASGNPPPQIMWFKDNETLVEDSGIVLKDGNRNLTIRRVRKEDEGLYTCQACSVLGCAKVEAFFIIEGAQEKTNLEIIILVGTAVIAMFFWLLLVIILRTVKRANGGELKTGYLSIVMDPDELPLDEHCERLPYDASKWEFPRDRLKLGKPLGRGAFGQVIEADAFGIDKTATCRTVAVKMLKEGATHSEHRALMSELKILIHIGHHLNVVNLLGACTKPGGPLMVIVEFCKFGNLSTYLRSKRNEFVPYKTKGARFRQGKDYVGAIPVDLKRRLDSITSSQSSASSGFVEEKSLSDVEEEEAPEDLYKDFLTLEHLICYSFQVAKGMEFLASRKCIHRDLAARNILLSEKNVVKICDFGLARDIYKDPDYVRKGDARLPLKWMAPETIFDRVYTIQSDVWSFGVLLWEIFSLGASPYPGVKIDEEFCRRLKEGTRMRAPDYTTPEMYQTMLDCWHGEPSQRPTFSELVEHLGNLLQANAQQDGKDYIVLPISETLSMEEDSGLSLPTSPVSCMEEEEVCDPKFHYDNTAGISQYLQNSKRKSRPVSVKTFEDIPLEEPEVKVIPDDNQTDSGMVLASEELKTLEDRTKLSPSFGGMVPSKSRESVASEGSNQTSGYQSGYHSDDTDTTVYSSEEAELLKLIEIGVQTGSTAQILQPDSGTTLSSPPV

Row | SMILES | inhibition at 1 µM [1] | inhibition at 1 µM [2] | inhibition at 1 µM [3] | inhibition at 1 µM [4] | inhibition at 1 µM [5] | inhibition at 1 µM [6] | inhibition at 1 µM [7] | inhibition at 1 µM [8]
1 | CCOC(=O)Nc1cccc2c(Oc3ncccc3-c3ccnc(N[C@H]4CCCNC4)n3)c(C)ccc12 [G-1749] | -9.5% | 1.8% | -18% | 0.5% | 12% | 3.5% | 10% | -4.5%
2 | CC#CC(=O)Nc1cccc2c(Oc3ncccc3-c3ccnc(N[C@H]4CCCNC4)n3)c(C)ccc12 [G-7658] | -7% | -9% | -4% | 3% | 18.5% | 0% | 1.5% | 3%
3 | O=c1cc(-c2n[nH]c3ncc(-c4c(F)cccc4F)cc23)nc(N2CCC(O)CC2)[nH]1 [G-9807] | 92% | 26.8% | 96.3% | 90.2% | 34.2% | 98% | 96.9% | 67.6%
